Test results from a melting point compilation (Tetko et al.; mined from patent text by program, amines drawn as free bases though some values may be those of a salt).
Residues, ends and D or L forms follow the SMILES beside them. *: point of attachment. Cbz = O=C(OCc1ccccc1)*

Row | melting point [°C] | Structure (SMILES)
1 | 82 to 83 | Cc1ccc(-n2cc(CCCO)c(C(C)C)n2)nc1
2 | 115 to 118 | N#Cc1nc(Cl)c(Oc2ccccc2)nc1C#N
3 | 145 to 146 | CC(=O)NC(Cc1c[nH]c2ccccc12)C(=O)OCc1cc(C)cc(C)c1 (configuration not stated)
4 | 143 to 145 | Nc1nc(OCc2cccc(Br)c2)ncc1F
5 | 118 to 119 | COc1ccccc1OCCCc1oc(-n2cnc(-c3ccccc3)c2-c2ccccc2)nc1-c1ccc(Cl)cc1
6 | 107 to 109 | OCC1Cc2c(ccc3c(-c4ccccc4)noc23)O1 (configuration not stated)
7 | 191 to 192 | Cc1cc(NS(=O)(=O)c2cccc(S(=O)(=O)Nc3cc(C)c(S(=O)(=O)C[N+](=O)[O-])c(C)c3)c2)cc(C)c1S(=O)(=O)C[N+](=O)[O-]
8 | 104 to 105 | O=C(O)CCCCCCCCCCNC(=O)C(CS)Cc1ccccc1 (configuration not stated)
9 | 128 to 144 | CCC(=O)NN=C(c1ccc(Cl)cc1)c1ccc(OS(C)(=O)=O)cc1
10 | 175 to 180 | COC(=O)c1cccc(S(=O)(=O)N(C)C)c1CS(=O)(=O)NC(=O)Nc1nc(OC)cc(OC)n1
11 | 154 | CN(C)S(=O)(=O)c1cc2c(c(Cl)c1Cl)OC(C(=O)O)C2 (configuration not stated)
12 | 158 to 160 | NCCc1nc(Cl)ccc1C(=O)O
13 | 79 to 81 | C[C@](Cc1c[nH]c2ccccc12)(NC(=O)O)C(=O)NCCC1CCCCC1
14 | 195 to 196 | CCc1cn(C2CC(O)C(CNC(=O)Cc3ccccc3N)O2)c(=O)[nH]c1=O (configuration not stated)
15 | 180 to 182 | CCOC(=O)/C=C/c1oc2cccc(O)c2c1C
16 | 55 to 57 | COC(=O)c1cccc2c1OCO2
17 | 51 to 53 | Oc1c(I)cccc1-c1c(Cl)cccc1Cl
18 | 187 to 189 | O=S(=O)(c1ccc2nccnc2c1)c1cccc2cnccc12
19 | 198 to 199 | O=C(O)c1cccc(-c2ccc3c(c2)N(Cc2cc(Cl)ccc2Cl)CC3)c1
20 | 81 to 82 | COC(=O)CN1C(=O)C(C(C)C)Sc2ccccc21 (configuration not stated)
21 | 129 to 132 | NC(=O)c1c(F)cccc1C(=O)O
22 | 113 to 114 | O=C(CC1c2ccccc2S(=O)(=O)C1c1ccccc1)NO (configuration not stated)
23 | 114 to 115 | Cc1oc(-c2ccccc2)nc1COc1ccc2oc(CCCC#N)cc2c1

Row | melting point [°C] | Structure (SMILES)
24 | 171 to 172 | O=C1Cc2cc([N+](=O)[O-])ccc2Sc2ccccc21
25 | 212 to 214 | O=C(Nc1ccc2cc(CN3CCCC3)ccc2c1)c1ccc(-c2ccccc2)nc1
26 | 97 to 99 | Cn1c(C(=O)OC(C)(C)C)c(Br)c2cc(OCc3ccccc3)ccc21
27 | 194 to 195 | CN(Cc1ccc(NC(=O)C2=Cc3cc(-c4ccc(-n5ccnc5)cc4)ccc3OCC2)cc1)C1CCOCC1
28 | 135 | Nc1ccc(Cl)c2c(Cl)ccnc12
29 | 114 | NC(=O)C(N)c1ccc(Cl)cc1Cl (configuration not stated)
30 | 277 | Nc1cc(-c2noc(-c3cnn4c(C(F)(F)F)cc(-c5ccc(C(F)(F)F)cc5)nc34)n2)ccn1
31 | 237 to 238 | CC(C)Cn1c(=O)n(C)c(=O)c2c(Sc3nnc[nH]3)c(Cc3csc4ccccc34)sc21
32 | 119 to 121 | COc1ccc(N(CCCC(=O)O)C(=O)C(C)N(C(=O)c2cccc(C(F)(F)F)c2)c2ccc(OC)cc2)cc1 (configuration not stated)
33 | 124 to 127 | CCOC(=O)c1ccc2c(CC[N+](=O)[O-])c[nH]c2c1
34 | 203 to 204 | O=C(C=Cc1ccc(C(F)(F)F)cc1-c1nccs1)Nc1ccc2[nH]ccc2c1
35 | 63 to 64 | OCCCc1ccc(OCc2ccccc2)cc1
36 | > 360 | Nc1c(C(F)(F)F)cc2[nH]c(=O)c(=O)[nH]c2c1Cl
37 | 305 to 315 | Cc1cc2c(s1)c(=O)c(C(=O)O)cn2C
38 | 220 | CCOc1ccc2c(c1)n(C1CCCCC1)c(=O)n2S(=O)(=O)c1ccc(N(C)C)cc1OC
39 | 112 to 115 | CSc1nc(=O)n(C(C)(C)C)c(=O)[nH]1
40 | 210 to 211 | Cc1c(NC(=O)c2ccc(-c3ccc(Cl)s3)cc2)ccc2cc(CN3CCCC3)cnc12
41 | 147 to 149 | Clc1ccc2nc3c(nc2c1)N1CCCCC1CO3 (configuration not stated)
42 | 191 to 192 | O=C1c2ccccc2C(=O)c2c1cc(CO)c1c2CCC1
43 | 242 to 245 | N=C(N)NCCCCC(=O)Nc1ccc(OCc2ccccc2)c(C(=O)NCCC(=O)O)c1
44 | 103 to 106 | COC(=O)C(C)NC(=O)C1CCCN1C(=O)CNC(=O)OCc1ccccc1 (stereo not drawn) (Cbz-Gly-Pro-Ala-OMe; configuration not given here)
45 | 75 to 79 | CN1CCN(C(=O)CCS)C(C(=O)O)C1 (configuration not stated)
46 | 136 to 138 | COc1ccc(-c2ccc(C(C)=O)cc2)cc1C=O

Row | melting point [°C] | Structure (SMILES)
47 | 186 to 196 | COc1ccc(Nc2nc(NC3CCCCCC3)nc(Oc3ccc(C(C)=O)cc3Cl)n2)cc1Cl
48 | 241 to 242 | Cn1c(=O)c(-c2ccc(Cl)cc2Cl)cc2c3cc(-c4ccno4)ccc3n(C)c21
49 | 262 | CCCCn1c2ccc(C)cc2c(=O)c2c1cnn2C
50 | 264 to 266 | CC(C)(C)C(=O)c1c[nH]c2ncc(-c3cccc(NS(=O)(=O)c4ccc(N)cc4)c3)nc12
51 | 120 | COc1ccccc1C(c1ccccc1)c1cccc(-c2ccccc2)c1O (configuration not stated)
52 | 190 | CCOC(=O)c1nc(NC(C)=O)sc1Cc1ccc(SCC)cc1
53 | 79 to 81 | CCOC(=O)C(Cc1cccc2ccccc12)(Cc1cccc2ccccc12)C(=O)OCC
54 | 148 to 149 | CN1c2ccc(C#CCOC3CCCCO3)cc2C(O)=C(C(=O)NCc2ccc(Cl)cc2)S1(=O)=O (configuration not stated)
55 | 92 to 94 | Fc1ccc(CNc2ccc(-n3nc(C(F)(F)F)cc3C(F)(F)F)cc2)cc1
56 | 142 to 144 | O=C(O)c1cnccc1CCCOc1cccnc1Oc1cccc(Cl)c1
57 | 211 | CCCC1=NN(c2ccc([N+](=O)[O-])cc2)C(=O)C1=CNc1ccccc1CC
58 | 214 | CN1C(=O)C(C2=COc3ccccc3O2)=C(c2c[nH]c3cc(F)ccc23)C1=O
59 | 237 to 239 | COc1ccc(OC)c2c1C[C@@H](O)[C@H](N1CCN(c3ccccc3Cl)CC1)C2 (relative stereo)
60 | 63 to 64 | CCCCCCCCOc1c(OC)cc(N)c2ncccc12
61 | 172 to 174 | COc1cccc(NC(=O)C23CC4CC(CC(C4)C2)C3)c1
62 | 210 to 211 | O=C1C(=O)c2ccc(Br)cc2C2=C1SCC1(CCN(Cc3ccc(F)cc3)CC1)O2
63 | 94 to 96 | CCCCCCCCCCCCCCCCCCNC(=O)c1ccccc1I
64 | 100 to 101 | OC1CCC(c2ccc(OCCCCCCCCCCCBr)cc2)CC1 (configuration not stated)
65 | 177 to 178 | CCOC(=O)c1cnc2n(c1=O)C(C)CCC2=NNc1ccc(Cl)cc1 (configuration not stated)
66 | 146 to 148 | COc1ccc(-c2sc3cccnc3c2OC(C)=O)cc1
67 | 73 to 75 | c1ccc(CNC2CN(C(c3ccccc3)c3ccccc3)C2)cc1
68 | 169 to 170 | COc1ccc2c(c1)CCC1C2CCC2(C)C(NCc3ccc(O)c(OC)c3)CCC12 (configuration not stated)
69 | 160 | CCOc1ccc(C2CC(C(C)(C)C)=NN2c2ccc(C(=O)O)cc2)cc1 (configuration not stated)

Row | melting point [°C] | Structure (SMILES)
70 | 205 to 207 | COC(=O)c1cc2ccc(C(=O)NC(CO)CO)cc2[nH]1
71 | 214 to 216 | O=C(N1CCCC1)N1CCN(Cc2ccc3c(c2)-c2[nH]nc(-c4ccsc4)c2C3)CC1
72 | 101 to 102 | CCCCCCCCCC(=O)Nc1ccc(S(=O)(=O)Nc2nnc(C(=O)OCC)s2)cc1
73 | 91 to 92 | CCOC(=O)c1c2ccc(Cl)cc2c(-c2ccccc2)n1CCCOS(C)(=O)=O
74 | 98 to 99.5 | CSc1ccc(/C=C/C2=CC(=O)C(C)(C)O2)cc1
75 | 108 | CCOC(=O)c1nn(-c2ccc(Cl)cc2Cl)c(-c2ccc(Br)cc2)c1CC
76 | 152 | CCOC(=O)C(CC=C(C)C=CC1=C(C)CCCC1(C)C)C(C)=O (configuration not stated)
77 | 198 to 200 | Cc1[nH]c(=O)n(C2CCCCC2)c1-c1ccc(OCCC(C)C)cc1
78 | 236 to 238 | CCOC(=O)N1CCc2[nH]cc3c(=O)n(-c4ccccc4)nc-3c2C1
79 | 180 to 182 | O=C1N(Cc2noc(C3CC3)n2)c2cccc(Cl)c2C12COc1cc3c(cc12)OCO3 (configuration not stated)
80 | 217 to 218 | CC(C)(C)C(O)Cn1c(=O)c(=NNc2ccccc2)c(=O)n(-c2ccccc2F)c2ccccc21 (configuration not stated)
81 | 130 | CCOCCc1c(N=[N+]=[N-])nc(NC(=O)NCC(=O)OCC)nc1-c1ccccc1
82 | 117 | O=C(OCc1ccccc1)c1cc(OCc2ccccc2)c(OCc2ccccc2)cn1
83 | 230 to 250 | Cc1cc(O)ccc1-n1cc(C(=O)O)c(=O)cc1C=O
84 | 122 to 124 | COC(=O)C(Cc1ccccc1)NC(=O)C(Cc1ccccc1)NC(=O)CNC(=O)OCc1ccccc1 (stereo not drawn) (Cbz-Gly-Phe-Phe-OMe; configuration not given here)
85 | 178 to 180 | COc1cc(N)c(Cl)cc1-c1nc(-c2cccnc2)c(C)[nH]1
86 | 80.5 to 81.5 | O=[N+]([O-])c1ccc(OCc2ccc(C(F)(F)F)cc2)cc1
87 | 255 | O=C(Oc1cccc2c(-c3ccccc3)c3cccc(OC(=O)c4ccccc4)c3c(OC(=O)c3ccccc3)c12)c1ccccc1
88 | 158 | CCCCNc1ccc(C(=O)O)cc1N
89 | 100 to 112 | CC(C)(C)[S@](=O)N1CCC[C@@H]1c1ccc(Br)cc1
90 | 108 to 110 | O=C(O)CCCc1ccc([N+](=O)[O-])cn1
91 | 208 to 210 | C#CC1(OC(=O)CC)C(COC(=O)c2ccc(Cl)cc2)OC(n2ccc(=O)[nH]c2=O)C1OC(=O)CC (configuration not stated)
92 | 100 to 101 | COC(=O)c1ccc(Cl)cc1NC(=O)Cc1cccc(C#Cc2ccccc2)c1

Row | Structure (SMILES) | melting point [°C]
93 | Nc1c([N+](=O)[O-])nc(Cl)c2nncn12 | 220
94 | Cc1cc2c(cc1-c1csc(C=O)c1)C(C)(C)CCC2(C)C | 144 to 146
95 | N#Cc1ccc(N2C(=O)N(CCCCO)C3(CCSCC3)C2=O)cc1C(F)(F)F | 139 to 140
96 | C=CCn1cc(C(=O)O)c(=O)c2cc(F)c(N3CCNCC3)cc21 | 136
97 | CC1=CC(=O)C=C2CCC3C4CCC(=O)C4(C)CCC3C12C (configuration not stated) | 165 to 167
